Assay results from paper PMC4457528, “Identification of Novel Small Molecule Inhibitors of Oncogenic RET Kinase” (PLoS ONE, 2015).
Where two headings read alike, the source gives them in different places.

Columns and labels:
Assay in all cases: KinomeScan kinase panel, single concentration 10 µM
Format in all cases: binding
KinomeScan kinase panel [1] = target: T1, KinomeScan kinase panel (Homo sapiens, UniProt O94804); settings: LOK, 10 µM
T1 construct: purchased DiscoveRx (KinomeScan)

KinomeScan kinase panel [2] = target: T2, KinomeScan kinase panel (Homo sapiens, UniProt P42338); settings: PIK3CB, 10 µM; read-out: score (%)
T2 construct: purchased DiscoveRx (KinomeScan)

KinomeScan kinase panel [3] = target: T3, KinomeScan kinase panel (Homo sapiens, UniProt Q08881); settings: ITK, 10 µM
T3 construct: purchased DiscoveRx (KinomeScan)
T3 sequence (Q08881 1-620): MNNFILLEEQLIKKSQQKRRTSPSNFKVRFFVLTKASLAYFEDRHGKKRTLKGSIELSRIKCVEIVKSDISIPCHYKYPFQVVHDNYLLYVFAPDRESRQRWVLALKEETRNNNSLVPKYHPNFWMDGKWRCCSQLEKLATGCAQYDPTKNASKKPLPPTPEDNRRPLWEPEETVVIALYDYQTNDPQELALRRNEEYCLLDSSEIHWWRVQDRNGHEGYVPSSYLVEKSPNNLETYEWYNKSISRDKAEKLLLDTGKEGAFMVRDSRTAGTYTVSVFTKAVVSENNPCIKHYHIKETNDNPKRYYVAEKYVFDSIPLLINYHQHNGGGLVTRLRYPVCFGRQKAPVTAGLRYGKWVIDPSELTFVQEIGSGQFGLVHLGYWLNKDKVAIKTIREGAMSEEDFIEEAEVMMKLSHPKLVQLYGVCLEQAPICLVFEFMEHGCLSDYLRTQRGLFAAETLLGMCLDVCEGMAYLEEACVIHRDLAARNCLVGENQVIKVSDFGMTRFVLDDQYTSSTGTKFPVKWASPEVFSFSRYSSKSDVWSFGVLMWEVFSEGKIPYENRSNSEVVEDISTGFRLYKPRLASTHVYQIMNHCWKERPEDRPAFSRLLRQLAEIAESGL

KinomeScan kinase panel [4] = target: T4, KinomeScan kinase panel (Homo sapiens, UniProt Q02763); settings: read-out: score (%)
T4 construct: purchased DiscoveRx (KinomeScan)

KinomeScan kinase panel [5] = target: T5, KinomeScan kinase panel (Homo sapiens, UniProt Q86UE8); settings: read-out: score (%)
T5 construct: purchased DiscoveRx (KinomeScan)

KinomeScan kinase panel [6] = target: T6, KinomeScan kinase panel (Homo sapiens, UniProt Q9UQ88); settings: CDC2L2, 10 µM; read-out: score (%)
T6 construct: purchased DiscoveRx (KinomeScan)
T6 sequence (Q9UQ88 1-783): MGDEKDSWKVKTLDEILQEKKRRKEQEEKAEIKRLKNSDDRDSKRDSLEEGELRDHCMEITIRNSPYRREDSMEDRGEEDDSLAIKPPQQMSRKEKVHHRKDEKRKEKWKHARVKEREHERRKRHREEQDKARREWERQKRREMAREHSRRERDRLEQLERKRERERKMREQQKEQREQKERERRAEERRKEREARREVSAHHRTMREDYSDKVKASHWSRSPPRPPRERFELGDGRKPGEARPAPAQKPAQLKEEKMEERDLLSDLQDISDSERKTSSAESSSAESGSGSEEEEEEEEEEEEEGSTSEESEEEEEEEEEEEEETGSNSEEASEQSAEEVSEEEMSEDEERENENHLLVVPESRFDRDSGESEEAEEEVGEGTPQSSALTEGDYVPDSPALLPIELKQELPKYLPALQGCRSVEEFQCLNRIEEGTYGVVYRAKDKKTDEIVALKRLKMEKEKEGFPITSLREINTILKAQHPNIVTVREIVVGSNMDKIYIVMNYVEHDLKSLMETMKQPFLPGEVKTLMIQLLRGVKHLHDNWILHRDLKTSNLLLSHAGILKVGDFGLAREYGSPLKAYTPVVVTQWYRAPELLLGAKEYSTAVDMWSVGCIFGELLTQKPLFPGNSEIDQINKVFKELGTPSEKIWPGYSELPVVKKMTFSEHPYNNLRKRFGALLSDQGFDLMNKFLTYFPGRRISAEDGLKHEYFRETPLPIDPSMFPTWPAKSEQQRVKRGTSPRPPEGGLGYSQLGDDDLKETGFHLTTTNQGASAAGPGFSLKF

KinomeScan kinase panel [7] = target: T7, KinomeScan kinase panel (Homo sapiens, UniProt P0C264); settings: read-out: score (%)
T7 construct: purchased DiscoveRx (KinomeScan)
T7 sequence (P0C264 1-359): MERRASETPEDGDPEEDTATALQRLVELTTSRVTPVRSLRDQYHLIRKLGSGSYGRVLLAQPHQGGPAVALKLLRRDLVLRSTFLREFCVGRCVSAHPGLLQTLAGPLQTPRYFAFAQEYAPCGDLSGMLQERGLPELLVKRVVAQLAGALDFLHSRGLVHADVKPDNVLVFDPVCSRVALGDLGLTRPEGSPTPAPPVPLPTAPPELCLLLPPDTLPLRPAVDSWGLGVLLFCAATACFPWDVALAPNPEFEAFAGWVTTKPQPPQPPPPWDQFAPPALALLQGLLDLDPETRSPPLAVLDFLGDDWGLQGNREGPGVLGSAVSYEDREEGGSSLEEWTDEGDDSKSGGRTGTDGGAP

KinomeScan kinase panel [8] = target: T8, KinomeScan kinase panel (Homo sapiens, UniProt P10721); settings: KIT, 10 µM; read-out: score (%)
T8 construct: purchased DiscoveRx (KinomeScan)

KinomeScan kinase panel [9] = target: T9, KinomeScan kinase panel (Homo sapiens, UniProt P53671); settings: LIMK2, 10 µM; read-out: score (%)
T9 construct: purchased DiscoveRx (KinomeScan)

KinomeScan kinase panel [10] = target: T10, KinomeScan kinase panel (Homo sapiens, UniProt P00519, F317L); settings: 10 µM, read-out: score (%)
T10 construct: purchased DiscoveRx (KinomeScan)

KinomeScan kinase panel [11] = target: T11, KinomeScan kinase panel (Homo sapiens, UniProt Q16620); settings: 10 µM, read-out: score (%)
T11 construct: purchased DiscoveRx (KinomeScan)

KinomeScan kinase panel [12] = target: T12, KinomeScan kinase panel (Homo sapiens, UniProt P11362); settings: FGFR1, 10 µM; read-out: score (%)
T12 construct: purchased DiscoveRx (KinomeScan)

KinomeScan kinase panel [13] = target: T13, KinomeScan kinase panel (Homo sapiens, UniProt O96017); settings: CHEK2, 10 µM; read-out: score (%)
T13 construct: purchased DiscoveRx (KinomeScan)

KinomeScan kinase panel [14] = target: T14, KinomeScan kinase panel (Homo sapiens, UniProt Q06187); settings: BTK, 10 µM
T14 construct: purchased DiscoveRx (KinomeScan)

KinomeScan kinase panel [15] = target: T15, KinomeScan kinase panel (Homo sapiens, UniProt P68400); settings: CSNK2A1, 10 µM; read-out: score (%)
T15 construct: purchased DiscoveRx (KinomeScan)

KinomeScan kinase panel [16] = target: T16, KinomeScan kinase panel (Homo sapiens, UniProt P19784); settings: CSNK2A2, 10 µM; read-out: score (%)
T16 construct: purchased DiscoveRx (KinomeScan)
T16 sequence (P19784 whole entry): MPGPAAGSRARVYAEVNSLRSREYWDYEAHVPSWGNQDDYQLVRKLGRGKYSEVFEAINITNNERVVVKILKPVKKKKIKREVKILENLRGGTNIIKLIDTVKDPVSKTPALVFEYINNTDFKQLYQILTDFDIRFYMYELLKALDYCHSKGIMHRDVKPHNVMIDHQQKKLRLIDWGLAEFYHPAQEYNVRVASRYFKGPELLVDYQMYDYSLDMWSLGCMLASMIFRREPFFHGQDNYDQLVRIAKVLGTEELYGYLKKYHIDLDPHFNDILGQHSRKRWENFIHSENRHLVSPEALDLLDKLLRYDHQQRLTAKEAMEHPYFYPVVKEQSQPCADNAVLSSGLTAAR

T9 sequence (P53671 whole entry): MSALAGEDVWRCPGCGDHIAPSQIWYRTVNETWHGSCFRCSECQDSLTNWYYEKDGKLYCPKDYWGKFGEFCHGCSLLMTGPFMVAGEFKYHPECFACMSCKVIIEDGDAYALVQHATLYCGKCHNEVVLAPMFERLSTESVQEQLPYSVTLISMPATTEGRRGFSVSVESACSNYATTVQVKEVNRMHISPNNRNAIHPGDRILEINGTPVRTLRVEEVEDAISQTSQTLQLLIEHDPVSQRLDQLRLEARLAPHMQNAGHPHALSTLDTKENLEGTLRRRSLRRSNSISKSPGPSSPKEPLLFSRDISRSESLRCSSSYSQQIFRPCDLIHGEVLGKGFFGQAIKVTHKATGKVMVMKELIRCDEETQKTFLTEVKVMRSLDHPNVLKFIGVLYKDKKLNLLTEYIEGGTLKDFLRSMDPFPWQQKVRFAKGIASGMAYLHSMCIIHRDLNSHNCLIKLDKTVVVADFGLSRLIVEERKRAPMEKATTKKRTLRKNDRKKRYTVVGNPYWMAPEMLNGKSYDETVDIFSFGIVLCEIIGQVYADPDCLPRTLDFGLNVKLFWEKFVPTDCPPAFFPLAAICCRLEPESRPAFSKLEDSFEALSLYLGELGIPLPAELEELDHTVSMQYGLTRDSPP
T12 sequence (P11362 22-822): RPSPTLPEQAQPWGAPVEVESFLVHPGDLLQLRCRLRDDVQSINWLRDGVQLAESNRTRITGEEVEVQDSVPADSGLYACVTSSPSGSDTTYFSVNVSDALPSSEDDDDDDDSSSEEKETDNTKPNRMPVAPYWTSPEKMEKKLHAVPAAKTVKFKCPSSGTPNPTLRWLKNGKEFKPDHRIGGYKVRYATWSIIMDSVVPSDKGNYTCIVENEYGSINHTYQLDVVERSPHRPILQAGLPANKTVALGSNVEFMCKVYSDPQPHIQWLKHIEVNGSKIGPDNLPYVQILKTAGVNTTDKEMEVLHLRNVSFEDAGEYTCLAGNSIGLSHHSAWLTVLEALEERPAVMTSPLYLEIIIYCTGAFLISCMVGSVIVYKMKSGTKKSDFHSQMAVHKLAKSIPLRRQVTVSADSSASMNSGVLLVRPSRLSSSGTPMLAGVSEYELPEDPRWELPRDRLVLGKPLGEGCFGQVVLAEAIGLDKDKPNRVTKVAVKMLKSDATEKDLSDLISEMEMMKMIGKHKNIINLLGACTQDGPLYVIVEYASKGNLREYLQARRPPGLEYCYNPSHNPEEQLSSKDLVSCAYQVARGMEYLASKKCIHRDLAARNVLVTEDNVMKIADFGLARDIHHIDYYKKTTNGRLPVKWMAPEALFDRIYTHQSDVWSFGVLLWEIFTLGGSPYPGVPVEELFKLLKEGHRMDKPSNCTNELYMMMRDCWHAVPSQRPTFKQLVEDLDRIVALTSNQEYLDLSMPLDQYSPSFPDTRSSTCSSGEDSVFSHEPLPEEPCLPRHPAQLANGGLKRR
T5 sequence (Q86UE8 whole entry): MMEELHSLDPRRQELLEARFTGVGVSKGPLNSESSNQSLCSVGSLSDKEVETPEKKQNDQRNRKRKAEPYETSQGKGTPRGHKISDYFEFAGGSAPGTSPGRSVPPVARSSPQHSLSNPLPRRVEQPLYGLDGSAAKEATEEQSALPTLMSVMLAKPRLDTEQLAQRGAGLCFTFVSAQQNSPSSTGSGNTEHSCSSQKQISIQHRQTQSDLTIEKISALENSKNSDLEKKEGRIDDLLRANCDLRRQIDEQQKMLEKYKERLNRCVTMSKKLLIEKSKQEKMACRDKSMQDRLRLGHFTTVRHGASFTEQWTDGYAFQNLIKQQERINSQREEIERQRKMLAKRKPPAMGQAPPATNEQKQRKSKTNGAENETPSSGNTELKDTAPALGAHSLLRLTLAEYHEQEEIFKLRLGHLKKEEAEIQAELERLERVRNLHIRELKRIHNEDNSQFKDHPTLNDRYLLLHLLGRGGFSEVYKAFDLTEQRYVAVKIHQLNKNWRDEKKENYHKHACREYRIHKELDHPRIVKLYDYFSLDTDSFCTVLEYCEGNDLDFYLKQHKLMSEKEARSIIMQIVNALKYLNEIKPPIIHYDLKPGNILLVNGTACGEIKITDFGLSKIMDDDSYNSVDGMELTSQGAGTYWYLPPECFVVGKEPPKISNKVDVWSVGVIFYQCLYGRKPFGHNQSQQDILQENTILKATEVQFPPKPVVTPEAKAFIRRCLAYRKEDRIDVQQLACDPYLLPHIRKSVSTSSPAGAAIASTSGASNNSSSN
T10 sequence (P00519 whole entry F317L): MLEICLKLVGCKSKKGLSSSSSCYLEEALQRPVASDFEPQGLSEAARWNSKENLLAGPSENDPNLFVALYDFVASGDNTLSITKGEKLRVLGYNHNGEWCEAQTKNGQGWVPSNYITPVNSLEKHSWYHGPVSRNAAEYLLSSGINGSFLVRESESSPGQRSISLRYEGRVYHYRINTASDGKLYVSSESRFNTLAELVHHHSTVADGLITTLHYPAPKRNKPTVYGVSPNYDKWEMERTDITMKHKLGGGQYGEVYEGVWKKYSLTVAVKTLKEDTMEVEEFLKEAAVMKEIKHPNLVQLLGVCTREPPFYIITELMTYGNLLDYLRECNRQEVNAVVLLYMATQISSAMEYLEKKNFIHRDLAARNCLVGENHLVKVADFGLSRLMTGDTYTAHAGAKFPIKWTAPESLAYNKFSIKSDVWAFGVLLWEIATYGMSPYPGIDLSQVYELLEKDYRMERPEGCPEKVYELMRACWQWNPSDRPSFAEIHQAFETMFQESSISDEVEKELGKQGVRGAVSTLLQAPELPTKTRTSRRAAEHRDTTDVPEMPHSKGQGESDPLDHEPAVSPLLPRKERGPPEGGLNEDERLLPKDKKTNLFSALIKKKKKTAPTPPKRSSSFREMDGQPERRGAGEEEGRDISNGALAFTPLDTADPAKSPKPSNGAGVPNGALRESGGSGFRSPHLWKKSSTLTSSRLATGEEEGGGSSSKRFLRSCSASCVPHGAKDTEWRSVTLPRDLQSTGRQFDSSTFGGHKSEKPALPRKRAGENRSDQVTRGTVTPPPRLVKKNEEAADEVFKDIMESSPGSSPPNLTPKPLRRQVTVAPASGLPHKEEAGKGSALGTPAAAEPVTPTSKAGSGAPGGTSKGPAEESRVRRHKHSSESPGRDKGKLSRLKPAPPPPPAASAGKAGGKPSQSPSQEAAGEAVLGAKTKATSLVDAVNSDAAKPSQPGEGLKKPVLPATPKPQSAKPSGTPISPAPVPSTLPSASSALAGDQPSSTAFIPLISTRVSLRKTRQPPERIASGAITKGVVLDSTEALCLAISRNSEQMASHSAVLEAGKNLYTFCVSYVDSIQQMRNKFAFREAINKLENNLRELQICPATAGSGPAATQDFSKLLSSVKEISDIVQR
T2 sequence (P42338 whole entry): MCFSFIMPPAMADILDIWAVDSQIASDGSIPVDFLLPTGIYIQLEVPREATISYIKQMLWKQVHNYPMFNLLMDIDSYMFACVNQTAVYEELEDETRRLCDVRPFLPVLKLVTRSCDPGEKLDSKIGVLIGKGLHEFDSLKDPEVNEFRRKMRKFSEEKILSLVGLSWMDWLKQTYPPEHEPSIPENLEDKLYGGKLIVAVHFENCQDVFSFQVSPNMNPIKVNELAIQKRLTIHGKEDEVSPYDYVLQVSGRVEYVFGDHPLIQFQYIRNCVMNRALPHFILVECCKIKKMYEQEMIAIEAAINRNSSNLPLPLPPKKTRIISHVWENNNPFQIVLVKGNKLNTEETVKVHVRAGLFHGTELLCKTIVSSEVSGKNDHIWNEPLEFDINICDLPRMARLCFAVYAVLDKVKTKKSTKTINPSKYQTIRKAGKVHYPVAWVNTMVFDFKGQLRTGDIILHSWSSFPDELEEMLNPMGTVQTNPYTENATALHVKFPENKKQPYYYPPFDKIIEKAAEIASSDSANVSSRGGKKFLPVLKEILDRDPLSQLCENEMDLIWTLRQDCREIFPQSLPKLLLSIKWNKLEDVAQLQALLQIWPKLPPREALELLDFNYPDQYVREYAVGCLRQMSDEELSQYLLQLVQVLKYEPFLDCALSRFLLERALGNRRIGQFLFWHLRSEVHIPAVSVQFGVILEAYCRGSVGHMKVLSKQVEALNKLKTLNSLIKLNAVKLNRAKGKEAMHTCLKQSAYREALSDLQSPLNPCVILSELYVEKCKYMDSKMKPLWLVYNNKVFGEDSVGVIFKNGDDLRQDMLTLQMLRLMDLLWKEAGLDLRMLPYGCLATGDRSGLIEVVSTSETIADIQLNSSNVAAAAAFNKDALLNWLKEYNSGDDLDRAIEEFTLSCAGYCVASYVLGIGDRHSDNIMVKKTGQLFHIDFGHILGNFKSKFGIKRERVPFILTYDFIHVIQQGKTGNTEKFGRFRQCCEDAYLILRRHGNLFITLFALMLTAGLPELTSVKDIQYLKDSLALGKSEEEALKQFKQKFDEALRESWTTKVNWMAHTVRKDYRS

Row | Compound | score (%) (KinomeScan kinase panel [1]) | remaining binding at 10 µM (KinomeScan kinase panel [2]) | score (%) (KinomeScan kinase panel [3]) | remaining binding at 10 µM (KinomeScan kinase panel [4]; kinase TIE2, 10 µM) | remaining binding at 10 µM (KinomeScan kinase panel [5]; kinase TLK2, 10 µM) | remaining binding at 10 µM (KinomeScan kinase panel [6]) | remaining binding at 10 µM (KinomeScan kinase panel [7]; kinase SgK110, 10 µM) | remaining binding at 10 µM (KinomeScan kinase panel [8]) | remaining binding at 10 µM (KinomeScan kinase panel [9]) | remaining binding at 10 µM (KinomeScan kinase panel [10]; ABL1(F317L)) | remaining binding at 10 µM (KinomeScan kinase panel [11]; kinase TRKB) | remaining binding at 10 µM (KinomeScan kinase panel [12]) | remaining binding at 10 µM (KinomeScan kinase panel [13]) | score (%) (KinomeScan kinase panel [14]) | remaining binding at 10 µM (KinomeScan kinase panel [15]) | remaining binding at 10 µM (KinomeScan kinase panel [16]) | further results
1 | CCN1CCN(Cc2ccc(NC(=O)c3ccc(C)c(NC(=O)c4cncc(-c5cccs5)c4)c3)cc2C(F)(F)F)CC1 [ALW-II-41-27] | 0.05% | > 30% | 8.6% | 0.45% | > 30% | 1.8% | > 30% | 0% | 31% | 0.2% | 4% | 2.2% | > 30% | 0.1% | > 30% | > 30% | –
2 | CCN1CCN(Cc2ccc(NC(=O)c3ccc(C)c(/C=C/c4cnc5[nH]ccc5c4Cl)c3)cc2C(F)(F)F)CC1 [HG-6-63-01, (E)-3-(2-(4-chloro-1H-pyrrolo[2,3-b]pyridin-5-yl)vinyl)-N-(4-((4-ethylpiperazin-1-yl)methyl)-3-(trifluoromethyl)phenyl)-4-methylbenzamide] | 0% | > 30% | 21% | – | – | 17% | – | 0% | 6.6% | 0.1% | – | 0.7% | > 30% | 3.8% | 15% | > 30% | remaining binding at 10 µM (KinomeScan kinase panel [4]; TIE2, 10 µM): 0.1%; remaining binding at 10 µM (KinomeScan kinase panel [5]; TLK2, 10 µM): > 30%; remaining binding at 10 µM (KinomeScan kinase panel [7]; SgK110, 10 µM): 29%; remaining binding at 10 µM (KinomeScan kinase panel [11]; TRKB): 1.6%
3 | CCN1CCN(Cc2ccc(NC(=O)c3ccc(C)c(C#Cc4cccnc4)c3)cc2C(F)(F)F)CC1 [XMD15-44] | 0% | 100% | nb (Hits values higher than 30% were considered negative (no binding: nb)) | 0.05% | 100% | 1.6% | 100% | 0% | 11% | – | 1.6% | 0.25% | > 30% | 2% | > 30% | > 30% | remaining binding at 10 µM (KinomeScan kinase panel [10]; ABL1(F317L)-nonphosphorylated): 0%; remaining binding at 10 µM (KinomeScan kinase panel [10]; ABL1(F317L)-phosphorylated): 0.85%
